The text below walks through data of publication PMC9019904, “AD Informer Set: Chemical tools to facilitate Alzheimer's disease drug discovery” (Alzheimer's & Dementia : Translational Research & Clinical …, 2022).

As a reminder, the kinetic solubility is the concentration staying in solution when a stock, usually in DMSO, is diluted into the medium.

Molecules are shown by their SMILES. Values after ≈ are worked out from the molar mass of the structure shown.

For one data set, the system named is cellular system. To be noted: published cellular activity at 10 μM; cited from earlier work.
Data set [1] deals with HMC3 (human microglia) cell line. The data set can be described thus: pHrodo-myelin phagocytosis/cell viability high content imaging assay: phagocytosis signal. It is filed as cell-based. The essentials: (§1)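 Imaging at high content captured pHrodo-myelin uptake about 22 hours after its addition, alongside a viability read-out from the same cells. Three measurements were derived, with intensity increase marking early apoptosis and decrease marking later apoptosis.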

Data set [2] concerns BV2 (mouse microglia) cell line. The data set can be described thus: pHrodo-myelin phagocytosis/cell viability high content imaging assay: viability (cell count, nuclear area, nuclear intensity). Put shortly:
(§2)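 BV2 mouse and HMC3 human microglia were treated with compounds at 10 μM for 48 h, with pHrodo-myelin present for the last 20 h. Viability was imaged as total cell count per well and mean nuclear intensity per cell. Values are means of duplicates, normalized to untreated wells as % control.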

Data set [3] relates to HMC3 (human microglia) cell line. The data set is described as above. The essentials:
as §2

Data set [4] deals with BV2 (mouse microglia) cell line. As to the kind of experiment: pHrodo-myelin phagocytosis/cell viability high content imaging assay: phagocytosis signal. It is filed as cell-based. The essentials:
as §1

Data set [5] can be described thus: Kinetic solubility in aqueous buffer pH 7.4 by total chemiluminescent nitrogen determination (Analiza). The settings on record: aqueous buffer, pH 7.4, aqueous buffer, kinetic from dmso stock.
The mark [6] stands for this setting: BV2, 10 μM, cell count <70% control.
The mark [7] stands for this setting: HMC3, 10 μM, cell count <70% control.

Regarding `Cc1cc2c(cc1-c1cc(/C=C\C(=O)O)ccc1O)C(C)(C)CCC2(C)C` [CD3254], the “Reported as cell active (<10 μM)” value in the data set on cellular system is “Y (Published data supports that the compound is active in a cellular system when dosed at 10 μM (Y/N))”.
In the case of `Cl.N=C(CCl)NCCC[C@H](NC(=O)c1ccccc1)C(N)=O` [Cl-amidine], in data set [1] (HMC3 cells, 10 μM), the “Inhibition of human microglial phagocytosis at 10 μM (<70% control)” value is on record as “Y (The compound was found to inhibit phagocytosis (response threshold: <70% control) when human immortalized microglial cells were dosed at 10 μM (Y: yes))”. For the same compound, the “Reported as cell active (<10 μM)” value in the data set with cellular system is “Y (Published data supports that the compound is active in a cellular system when dosed at 10 μM (Y/N))”.
For the compound `CCCCCOc1cc2c(cc1-c1cc(/C=C/C(=O)O)ccc1O)C(C)(C)CCC2(C)C` [UVI 3003], the “Reported as cell active (<10 μM)” value in the data set on cellular system is given as “Y (Published data supports that the compound is active in a cellular system when dosed at 10 μM (Y/N))”.
Turning to `Cc1cc2c(cc1C(=O)c1ccc(C(=O)O)cc1)C(C)(C)CCC2(C)C` [LG-100064], in the data set with cellular system, the “Reported as cell active (<10 μM)” value is on record as “Y (Published data supports that the compound is active in a cellular system when dosed at 10 μM (Y/N))”.
With `CC(C)(C(=O)O)c1ccc(C(O)CCCN2CCC(C(O)(c3ccccc3)c3ccccc3)CC2)cc1` (stereo not shown) [Fexofenadine], in the data set with cellular system, the “Reported as cell active (<10 μM)” value was “Y (Published data supports that the compound is active in a cellular system when dosed at 10 μM (Y/N))”.
On to `CN(C)CCCOc1c(Br)cc(/C=C/C(=O)NCCCOc2c(Br)cc(CCN(C)C)cc2Br)cc1Br` [Psammaplysene A], for which, in data set [2] (10 μM, BV2), the “Mouse microglial cytotoxicity at 10 μM (<70% control)” value is listed as “Y (The compound was found to be cytotoxic (cell count threshold: <70% control) when murine immortalized microglial cells were dosed at 10 μM (Y: yes))”. Also, the “Human microglial cytotoxicity at 10 μM (<70% control)” value in data set [3] (10 μM, HMC3) is listed as “Y (The compound was found to be cytotoxic (cell count threshold: <70% control) when human immortalized microglial cells were dosed at 10 μM (Y: yes))”. Besides, the “Inhibition of mouse microglial phagocytosis at 10 μM (<70% control)” value in data set [4] (10 μM, BV2) is reported as “Y (The compound was found to inhibit phagocytosis (response threshold: <70% control) when murine immortalized microglial cells were dosed at 10 μM (Y: yes))”. In addition, in data set [1] (10 μM, HMC3), the “Inhibition of human microglial phagocytosis at 10 μM (<70% control)” value was “Y (The compound was found to inhibit phagocytosis (response threshold: <70% control) when human immortalized microglial cells were dosed at 10 μM (Y: yes))”. Also, the solubility (kinetic) in data set [5] amounted to 125 µM (≈ 96.4 µg/mL).
For `Cc1cc(OCc2nnc(SC3CCCC3)n2-c2cccnc2)ccc1-c1ccc(S(C)(=O)=O)cc1` [NMS-873], the “Mouse microglial cytotoxicity at 10 μM (<70% control)” value in data set [2] (setting [6]) is “Y (The compound was found to be cytotoxic (cell count threshold: <70% control) when murine immortalized microglial cells were dosed at 10 μM (Y: yes))”. For the same compound, the “Human microglial cytotoxicity at 10 μM (<70% control)” value in data set [3] (setting [7]) is “Y (The compound was found to be cytotoxic (cell count threshold: <70% control) when human immortalized microglial cells were dosed at 10 μM (Y: yes))”. Besides, the “Inhibition of mouse microglial phagocytosis at 10 μM (<70% control)” value in data set [4] (BV2, 10 μM) was “Y (The compound was found to inhibit phagocytosis (response threshold: <70% control) when murine immortalized microglial cells were dosed at 10 μM (Y: yes))”. In addition, the “Inhibition of human microglial phagocytosis at 10 μM (<70% control)” value in data set [1] (HMC3, 10 μM) is “Y (The compound was found to inhibit phagocytosis (response threshold: <70% control) when human immortalized microglial cells were dosed at 10 μM (Y: yes))”. Moreover, in data set [5], the kinetic solubility was found to be 3.8 µM (≈ 1.98 µg/mL).
For the compound `CNC(=O)c1cccc(-c2ccc3c(N4CCOC[C@@H]4C)nc(N4CCOC[C@@H]4C)nc3n2)c1` [Vistusertib], the “Mouse microglial cytotoxicity at 10 μM (<70% control)” value in data set [2] (BV2 cells, 10 μM, cell count <70% control) is recorded as “Y (The compound was found to be cytotoxic (cell count threshold: <70% control) when murine immortalized microglial cells were dosed at 10 μM (Y: yes))”. The “Stimulation of mouse microglial phagocytosis at 10 μM (>150% control)” value (“Stimulation … (>150% control)” below) in data set [4] (BV2 cells, 10 μM) is “Y (The compound was found to stimulate phagocytosis (response threshold: >150% control) when murine immortalized microglial cells were dosed at 10 μM (Y: yes))”. Moreover, the “Reported as cell active (<10 μM)” value in the data set with cellular system is recorded as “Y (Published data supports that the compound is active in a cellular system when dosed at 10 μM (Y/N))”.
For the compound `CCN1CCN(Cc2ccc(NC(=O)c3ccc(C)c(NC(=O)c4cncc(-c5cccs5)c4)c3)cc2C(F)(F)F)CC1` [ALW-II-41-27], the “Mouse microglial cytotoxicity at 10 μM (<70% control)” value in data set [2] (BV2, 10 μM) was “Y (The compound was found to be cytotoxic (cell count threshold: <70% control) when murine immortalized microglial cells were dosed at 10 μM (Y: yes))”. For the same compound, the “Human microglial cytotoxicity at 10 μM (<70% control)” value in data set [3] (HMC3, 10 μM) is “Y (The compound was found to be cytotoxic (cell count threshold: <70% control) when human immortalized microglial cells were dosed at 10 μM (Y: yes))”. In addition, the “Inhibition of mouse microglial phagocytosis at 10 μM (<70% control)” value in data set [4] (BV2, 10 μM) is on record as “Y (The compound was found to inhibit phagocytosis (response threshold: <70% control) when murine immortalized microglial cells were dosed at 10 μM (Y: yes))”. Besides, the “Inhibition of human microglial phagocytosis at 10 μM (<70% control)” value in data set [1] (HMC3, 10 μM) is recorded as “Y (The compound was found to inhibit phagocytosis (response threshold: <70% control) when human immortalized microglial cells were dosed at 10 μM (Y: yes))”. In data set [5], the kinetic solubility came out at 3.7 µM (≈ 2.25 µg/mL).
In the case of `c1ccc(CNc2nc(NCc3ccccc3)c3ccccc3n2)cc1` [DBeQ], in data set [2] (setting [6]), the “Mouse microglial cytotoxicity at 10 μM (<70% control)” value was “Y (The compound was found to be cytotoxic (cell count threshold: <70% control) when murine immortalized microglial cells were dosed at 10 μM (Y: yes))”. The “Human microglial cytotoxicity at 10 μM (<70% control)” value in data set [3] (setting [7]) is listed as “Y (The compound was found to be cytotoxic (cell count threshold: <70% control) when human immortalized microglial cells were dosed at 10 μM (Y: yes))”. Also, the “Inhibition of mouse microglial phagocytosis at 10 μM (<70% control)” value in data set [4] (BV2, 10 μM) is listed as “Y (The compound was found to inhibit phagocytosis (response threshold: <70% control) when murine immortalized microglial cells were dosed at 10 μM (Y: yes))”. In addition, the “Inhibition of human microglial phagocytosis at 10 μM (<70% control)” value in data set [1] (HMC3, 10 μM) is on record as “Y (The compound was found to inhibit phagocytosis (response threshold: <70% control) when human immortalized microglial cells were dosed at 10 μM (Y: yes))”. This compound also had a solubility (kinetic) in data set [5] of 1.9 µM (≈ 0.647 µg/mL).
With `O=S(=O)(NC1CCNCC1)c1cc(S(=O)(=O)c2ccccc2)ccc1C(F)(F)F` [WAY-316606], the “Stimulation … (>150% control)” value in data set [4] (BV2 cells, 10 μM) was “Y (The compound was found to stimulate phagocytosis (response threshold: >150% control) when murine immortalized microglial cells were dosed at 10 μM (Y: yes))”. In the data set with cellular system, the “Reported as cell active (<10 μM)” value is “Y (Published data supports that the compound is active in a cellular system when dosed at 10 μM (Y/N))”.
In the case of `O=C1C=C(NCCc2cc(Br)c(O)c(Br)c2)C(=O)c2ncccc21` [NSC668394], the “Mouse microglial cytotoxicity at 10 μM (<70% control)” value in data set [2] (BV2, 10 μM) is given as “Y (The compound was found to be cytotoxic (cell count threshold: <70% control) when murine immortalized microglial cells were dosed at 10 μM (Y: yes))”. Moreover, the “Human microglial cytotoxicity at 10 μM (<70% control)” value in data set [3] (HMC3, 10 μM) is “Y (The compound was found to be cytotoxic (cell count threshold: <70% control) when human immortalized microglial cells were dosed at 10 μM (Y: yes))”. Further, in data set [4] (BV2, 10 μM), the “Stimulation … (>150% control)” value was “Y (The compound was found to stimulate phagocytosis (response threshold: >150% control) when murine immortalized microglial cells were dosed at 10 μM (Y: yes))”. Also, the “Inhibition of human microglial phagocytosis at 10 μM (<70% control)” value in data set [1] (HMC3, 10 μM) is given as “Y (The compound was found to inhibit phagocytosis (response threshold: <70% control) when human immortalized microglial cells were dosed at 10 μM (Y: yes))”. Also, the solubility (kinetic) in data set [5] stood at 18.4 µM (≈ 8.32 µg/mL).
On to `C=C(c1ccc(C(=O)O)cc1)c1cc2c(cc1C)C(C)(C)CCC2(C)C` [Bexarotene], for which, in the data set with cellular system, the “Reported as cell active (<10 μM)” value is reported as “Y (Published data supports that the compound is active in a cellular system when dosed at 10 μM (Y/N))”.
